Several values for one entry are separate records, joined by “and”; a condition that tells them apart may be missing. Identical values can stand only once.
Experiments:
[1] = physchem
[2] = physchem; conditions: octanol/water, pH 7.4
[3] = physchem; conditions: octanol/water
[4] = physchem; conditions: octanol/water, pH 5.5
[5] = octanol/water
[6] = physchem; conditions: octanol/water, pH 6.5
[7] = physchem; conditions: octanol/water; remark: listed apart in the source
[8] = Distribution coefficient in octanol/water at pH 7.4; format: physicochemical; conditions: read-out: Log D7.4
[9] = Distribution coefficient in octanol/water at pH 5.5; format: physicochemical; conditions: read-out: Log D5.5
[10] = Partition coefficient value and its ionic species.; format: ADME; conditions: octanol/water
[11] = Distribution coefficient in octanol/water at pH 6.5; format: physicochemical; conditions: read-out: Log D6.5
[12] = pKa value of the compound. (extrapolated values); format: physicochemical
[13] = physchem; remark: listed apart in the source
[14] = octanol/water; remark: listed apart in the source

| SMILES | logP [3] | GOF [5] | logD [8] | logD [9] | Log Pion [10] | logD [11] | other results |
| --- | --- | --- | --- | --- | --- | --- | --- |
| CC(C)n1c(/C=C/[C@@H](O)C[C@@H](O)CC(=O)O)c(-c2ccc(F)cc2)c2ccccc21 [FLUVASTATIN SODIUM] | 4.17 | 1.2 |  |  |  |  | pKa [1]: 4.31; logD [2]: 1.4; logD [4]: 3; logD [6]: 2; logPion [7]: 1.12 |
| COCCc1ccc(OC[C@@H](O)CNC(C)C)cc1 [(S)-METOPROLOL] | 2.07 | 0.9 | 0 | -0.6 | -0.63 | -0.5 |  |
| CC(C)C[C@H](N)C(=O)O [LEUCINE] | -1.55 | 2.6 | -1.6 | -1.6 | -2.07 | -1.6 | pKa [12]: 9.61 |
| N[C@@H](Cc1ccc(O)c(O)c1)C(=O)O [LEVODOPA] | < -2 | 1.4 | < -2 | < -2 | < -2 | < -2 | pKa [13]: 12.7 |
| NS(=O)(=O)c1cc(C(=O)O)c(NCc2ccco2)cc1Cl [FUROSEMIDE] |  | 1.7 |  |  |  |  |  |
| C[C@H](C(=O)O)c1cccc(C(=O)c2ccccc2)c1 [DEXKETOPROFEN] | 3.37 | 1.1 |  |  |  |  | logD [2]: 0.1; logD [4]: 1.8; logD [6]: 0.8 |
| C[C@H](N[C@@H](CCc1ccccc1)C(=O)O)C(=O)N1CCC[C@H]1C(=O)O [ENALAPRILAT ANHYDROUS] | -0.13 | 1.6 | -1 | -1 | -1.07 and -0.99 | -1 | pKa [12]: 7.84 |
| CC(C)(C)NC[C@H](O)c1cc(O)cc(O)c1 [TERBUTALINE] | -0.09 | 3.3 | -1.1 | -1.3 |  | -1.3 | pKa [13]: 11.1 |
| CN1CC(=O)NC1=N [CREATININE] | < -2 | 0.5 | < -2 | < -2 |  | < -2 | pKa [12]: 4.85 |
| Cc1cc(=O)n(-c2ccccc2)n1C [ANTIPYRINE] |  | 1.2 |  |  |  |  | pKa [1]: 1.44 |
| CC1(C)S[C@@H]2[C@H](NC(=O)[C@H](N)c3ccc(O)cc3)C(=O)N2[C@H]1C(=O)O [AMOXICILLIN] |  | 3.1 |  |  |  |  | pKa [1]: 9.61; logD [2]: -1.6; logD [4]: -1.7; logP [14]: -1.71; logD [6]: -1.7 |
| NS(=O)(=O)c1cc2c(cc1Cl)NCNS2(=O)=O [HYDROCHLOROTHIAZIDE] | -0.17 | 1.6 |  |  |  |  |  |
| C[C@](N)(Cc1ccc(O)c(O)c1)C(=O)O [METHYLDOPA] | < -2 | 1.3 | < -2 | < -2 | < -2 | < -2 | pKa [13]: 12.7 |
| CC(C)NC[C@H](O)COc1cccc2ccccc12.Cl [PROPRANOLOL HYDROCHLORIDE] |  | 0.9 |  |  |  |  |  |
| CC(C)NC[C@H](O)COc1ccc(CC(N)=O)cc1 [ATENOLOL] |  | 1.6 |  |  |  |  |  |

Reference: ChEMBL document CHEMBL1131593, “Correlation of human jejunal permeability (in vivo) of drugs with experimentally and theoretically derived parameters. A multivariate data analysis approach” (J Med Chem, 1998)
